From patent US12673946B2, “Pyrimidin-4(3H)-one derivatives as TRPV4 antagonists” (RaQualia Pharma Inc., priority 2020, dated 2026)

Target: T1, human TRPV4 (Homo sapiens, UniProt Q9HBA0)
T1 construct: host or cells: tetracycline-inducible Flp-In T-REx 293 cells
Assay: Hypotonicity-induced Ca2+ influx (Fluo-4, FDSS)
Assay type: cell-based
Method in brief: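 Flp-In T-REx 293 cells with tetracycline-induced human TRPV4, loaded with Fluo-4 for 60 min at 25 °C. Compound added 5 min before hypotonic mannitol/CaCl2 solution. Ca2+ signal recorded for 4.5 min on FDSS.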

[1] = Flp-In T-REx 293 cells expressing human TRPV4, examples listed under heading 'Human IC50<50 nM'
[2] = Flp-In T-REx 293 cells stably expressing human TRPV4, compounds listed by potency bin (<10 nM Tables 96-1/96-2, <3 nM Table 97)

T1 sequence (Q9HBA0 whole entry): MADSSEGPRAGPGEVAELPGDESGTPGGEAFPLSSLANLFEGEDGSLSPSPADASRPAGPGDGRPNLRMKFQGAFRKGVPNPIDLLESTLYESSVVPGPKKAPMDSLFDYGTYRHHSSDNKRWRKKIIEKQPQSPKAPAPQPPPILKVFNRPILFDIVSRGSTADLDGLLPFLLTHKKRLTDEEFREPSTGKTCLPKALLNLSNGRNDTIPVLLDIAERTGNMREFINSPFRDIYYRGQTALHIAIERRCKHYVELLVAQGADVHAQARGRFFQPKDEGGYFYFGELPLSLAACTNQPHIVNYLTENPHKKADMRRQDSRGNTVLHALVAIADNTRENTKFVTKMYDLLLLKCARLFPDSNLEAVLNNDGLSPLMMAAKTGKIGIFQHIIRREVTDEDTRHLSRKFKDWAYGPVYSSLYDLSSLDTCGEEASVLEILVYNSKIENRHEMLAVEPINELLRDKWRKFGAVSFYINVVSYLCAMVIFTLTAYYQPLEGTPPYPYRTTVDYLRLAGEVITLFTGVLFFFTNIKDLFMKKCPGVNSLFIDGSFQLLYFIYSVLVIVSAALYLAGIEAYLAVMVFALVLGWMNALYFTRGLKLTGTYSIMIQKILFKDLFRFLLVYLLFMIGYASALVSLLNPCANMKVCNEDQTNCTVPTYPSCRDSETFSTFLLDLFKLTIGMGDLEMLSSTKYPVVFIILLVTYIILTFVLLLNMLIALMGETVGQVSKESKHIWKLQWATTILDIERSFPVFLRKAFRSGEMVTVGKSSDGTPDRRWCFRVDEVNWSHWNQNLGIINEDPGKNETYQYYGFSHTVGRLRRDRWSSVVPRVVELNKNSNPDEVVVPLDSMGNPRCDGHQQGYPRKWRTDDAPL

Structure (SMILES)	IC50 [1] [nM]	IC50 [2] [nM]
O=C(C(O)c1cccc(OCc2ccccc2)c1)N1CCCc2nc(C3(c4cccc(Cl)c4)CC3)[nH]c(=O)c2C1 (stereo not drawn) [17-13]	< 50	< 10
O=C(C(O)c1ccccc1C(F)(F)F)N1CCCc2nc(C3(c4cccc(Cl)c4)CC3)[nH]c(=O)c2C1 (stereo not drawn) [17-43]	< 50	
O=C(N1CCCc2nc(C3(c4cncc(-c5ccccc5)c4)CC3)[nH]c(=O)c2C1)C(F)(F)c1cccc(C(F)(F)F)c1 [22-4]	< 50	< 3
O=C(C(O)c1cccc(SC(F)(F)F)c1)N1CCCc2nc(C3(c4cccc(Cl)c4)CC3)[nH]c(=O)c2C1 (stereo not drawn) [17-28]	< 50	< 10
O=C(N1CCc2nc(C3(c4cncc(-c5ccccc5)c4)CC3)[nH]c(=O)c2C1)C(F)(F)c1cccc(Cl)c1 [22-5]	< 50	< 10
O=C([C@H](O)c1cccc(-c2ccc(Cl)c(C(F)(F)F)c2)c1)N1CCc2nc(C3(c4cccc(Cl)c4)CC3)[nH]c(=O)c2C1 [45-3]	< 50	< 10
O=C(Cc1cccc(-c2cccc(Cl)c2)c1)N1CCCc2nc(C3(c4cncc(-c5ccccc5)c4)CC3)[nH]c(=O)c2C1 [19-15]	< 50	< 10
O=C([C@H](O)c1cccc(C(F)(F)F)c1)N1CCCc2nc(C3(c4cc(CCC5(O)CCCCC5)cs4)CC3)[nH]c(=O)c2C1 [30-14]	< 50	< 10
O=C([C@H](O)c1cccc(Cl)c1)N1CCc2nc(C3(c4cccc(-c5cccnc5)c4)CC3)[nH]c(=O)c2C1 [34-1]	< 50	
O=C(C(O)c1cccc(-c2ccccc2F)c1)N1CCc2nc(C3(c4ccccc4)CC3)[nH]c(=O)c2C1 (stereo not drawn) [44-43]	< 50	
CC1(C)CCC(c2cccc(C3(c4nc5c(c(=O)[nH]4)CN(C(=O)[C@H](O)c4cccc(C(F)(F)F)c4)CCC5)CC3)c2)CC1 [31-3]	< 50	< 3
O=C(COc1ccc(-c2ccccc2)cc1)N1CCCc2nc(C3(c4cccc(Cl)c4)CC3)[nH]c(=O)c2C1 [17-102]	< 50	
O=C([C@H](O)c1cccc(-c2ccc(Cl)c(C(F)(F)F)c2)c1)N1CCCc2nc(C3(c4ccccc4)CC3)[nH]c(=O)c2C1 [49-37]	< 50	< 10
O=C([C@H](O)c1cccc(C(F)(F)F)c1)N1CCCc2nc(C3(c4cccc(-c5cc(F)cc(F)c5)c4)CC3)[nH]c(=O)c2C1 [42-61]	< 50	< 10
O=C([C@H](O)c1cccc(-c2cccc(OC(F)(F)F)c2)c1)N1CCCc2nc(C3(c4cc(-c5ccccc5)cs4)CC3)[nH]c(=O)c2C1 [18-26]	< 50	< 10
O=C(C(O)c1cccc(Oc2ccccc2)c1)N1CCCc2nc(C3(c4cccc(Cl)c4)CC3)[nH]c(=O)c2C1 (stereo not drawn) [17-33]	< 50	< 10
O=C(C(O)c1cccc(-c2ccc(-c3ccc(Cl)cc3)cc2)c1)N1CCc2nc(C3(c4ccccc4)CC3)[nH]c(=O)c2C1 (stereo not drawn) [44-118]	< 50	< 10
CNc1cc(-c2cccc(C3(c4nc5c(c(=O)[nH]4)CN(C(=O)[C@H](O)c4cccc(C(F)(F)F)c4)CCC5)CC3)c2)ccn1 [42-32]	< 50	< 10
O=C([C@H](O)c1cccc(C(F)(F)F)c1)N1CCCc2nc(C3(c4cccc(-c5cnn(C6CC6)c5)c4)CC3)[nH]c(=O)c2C1 [42-6]	< 50	< 3
O=C(C(O)c1cccc(-c2cc(C(F)(F)F)cc(C(F)(F)F)c2)c1)N1CCc2nc(C3(c4ccccc4)CC3)[nH]c(=O)c2C1 (stereo not drawn) [44-8]	< 50	< 10
O=C(C(O)c1cccc(-c2cc(C(F)(F)F)cc(C(F)(F)F)c2)c1)N1CCCc2nc(C3(c4ccccc4)CC3)[nH]c(=O)c2C1 (stereo not drawn) [49-2]	< 50	< 10
Cn1c(=O)oc2cc(-c3cccc(C4(c5nc6c(c(=O)[nH]5)CN(C(=O)[C@H](O)c5cccc(C(F)(F)F)c5)CCC6)CC4)c3)ccc21 [42-14]	< 50	< 3
CC(C)c1cncc(C2(c3nc4c(c(=O)[nH]3)CN(C(=O)C(F)(F)c3cccc(Cl)c3F)CCC4)CC2)c1 [22-8]	< 50	< 10
